Where two headings read alike, the source gives them in different places.
What was measured:
[1] = pH upon addition of test substance to 0.1 M HCl solution (pH 1.2), simulated gastric fluid, pH meter; type: physicochemical
Description: Test substances were dissolved in various volumes of 0.1 M HCl solution (pH 1.2) at concentrations of 1, 2, 4, 10, 20, 50, 100 and 150 mg/ml. The solution pH was determined using an MP-103 pH-meter (MRC, Israel) equipped with ELC-10-00 electrode (MRC, Israel) or with a thin electrode HI1083 (HANNA instruments Inc.), shortly after dissolution and up to 26 hours later in order to ensure that the pH remained stable. The highest pH value obtained during the experimental time period was recorded in order to compare the acid-neutralizing capacity of each substance.
SNAC and the basic polymers sodium alginate, sodium carboxymethylcellulose in non-crosslinked (Na-CMC) and crosslinked (croscarmellose sodium, CCS) forms, and sodium starch glycolate (SSG) were dissolved in various volumes of 0.1 M HCl solution (pH 1.2) at concentrations of 1, 2, 4, 10, 20, 50, 100 and 150 mg/ml, and the solution pH was determined using an MP-103 pH-meter (MRC, Israel) equipped with ELC-10-00 electrode (MRC, Israel), as described in the Materials and Methods section hereinabove.
In order to obtain a beneficial rise in pH with a reduced loss of the active form of the absorption enhancer, the effect of various concentrations of different polymers containing carboxylate groups (sodium alginate, sodium starch glycolate, sodium carboxymethylcellulose, and croscarmellose sodium) on pH upon addition to a 0.1 M HCl solution (pH 1.2) was also evaluated. FIG. 2A presents pH values determined using an MP-103 pH-meter (MRC, Israel) equipped with ELC-10-00 electrode (MRC, Israel) and FIG. 2B presents pH values determined using an MP-103 pH-meter (MRC, Israel) equipped with a thin electrode HI1083 (HANNA instruments Inc.).

[2] = teduglutide without the formulation; cited from earlier work
[3] = Oral teduglutide/SNAC/SSG mini-tablets in rats, plasma teduglutide by ELISA; type: in vivo, Sprague-Dawley rats; settings: oral mini-tablets: 0.7 mg teduglutide (2.34 mg/Kg), 15 mg SNAC, 5.33 mg SSG, n=7
Description: In an exemplary in vivo rat model, the effect of SNAC, as an exemplary absorption enhancer, and SSG, as an exemplary alkaline polymer, on the oral bioavailability of teduglutide was tested.
A formulation was prepared with 0.7 mg teduglutide (2.34 mg/Kg), 15 mg SNAC, 0.2 mg stearate and 5.33 mg SSG. All substances were in a dry powder form and mixed geometrically. Afterwards, mini-tablets were prepared from the mixes using a 2 mm punch and die set at 1 ton/cm^2.
The study was conducted in 7 male Sprague-Dawley (SD) rats weighing about 299 grams (290-320 grams). Animals were deprived of food 12-15 hours prior to administration. Water supply was removed one hour before administration and returned one hour post-administration. The mini-tablets were administered by a flexible intragastric gavage with a tip adapted for solid dosage forms administration, without the aid of water. Blood samples were thereafter collected at pre-determined time points, the plasma was separated, and the plasma level of teduglutide was quantified by an ELISA kit for the detection of endogenous GLP-2 in plasma (Abcam, Cat. No. ab222863) according to manufacturer's method Version 7, upon required modifications.

[4] = compared with endogenous GLP-2; cited from earlier work
[5] = cited from earlier work

## O=C(O)CCCCCCCNC(=O)c1ccccc1O [SNAC, sodium 8-N-(2-hydroxybenzoyl)aminocaprylate]
[1]; 10 mg/ml SNAC added to HCl solution (pH 1.2)
  pH 5 minutes after dissolution: about 1.5
[1]; 20 mg/ml SNAC added to HCl solution (pH 1.2)
  pH 5 minutes after dissolution: 6.5
[1]; 100 mg/ml SNAC added to HCl solution (pH 1.2)
  pH 5 minutes after dissolution: about 7.5

## CC[C@H](C)[C@H](NC(=O)[C@H](Cc1ccccc1)NC(=O)[C@H](CC(=O)O)NC(=O)[C@H](CCCNC(=N)N)NC(=O)[C@H](C)NC(=O)[C@H](C)NC(=O)[C@H](CC(C)C)NC(=O)[C@H](CC(N)=O)NC(=O)[C@H](CC(=O)O)NC(=O)[C@H](CC(C)C)NC(=O)[C@@H](NC(=O)[C@@H](NC(=O)[C@H](CC(N)=O)NC(=O)[C@H](CCSC)NC(=O)[C@H](CCC(=O)O)NC(=O)[C@H](CC(=O)O)NC(=O)[C@H](CO)NC(=O)[C@H](Cc1ccccc1)NC(=O)[C@H](CO)NC(=O)CNC(=O)[C@H](CC(=O)O)NC(=O)CNC(=O)[C@@H](N)Cc1c[nH]cn1)[C@@H](C)O)[C@@H](C)CC)C(=O)N[C@@H](CC(N)=O)C(=O)N[C@@H](Cc1c[nH]c2ccccc12)C(=O)N[C@@H](CC(C)C)C(=O)N[C@H](C(=O)N[C@@H](CCC(N)=O)C(=O)N[C@H](C(=O)N[C@@H](CCCCN)C(=O)N[C@H](C(=O)N[C@H](C(=O)N[C@@H](CC(=O)O)C(=O)O)[C@@H](C)O)[C@@H](C)CC)[C@@H](C)O)[C@@H](C)CC [teduglutide]
[2]
  oral (PO) bioavailability: negligible
[3]
  teduglutide plasma concentrations as a function of time: enable oral delivery of teduglutide
[4]
  stability to metabolic degradation: significantly higher stability to metabolic degradation than the endogenous glucagon like peptide 2 (GLP-2)
[5]; humans
  half-life in humans: about two hours

## GLP-2: Human glucagon-like peptide-2, a 33-amino acid polypeptide produced by intestinal endocrine L cells
[5]; human, in vivo
  half-life in humans: about 7 minutes
